Assays:
[1] = Selectivity ratio of IC50 for inhibition of human CYP11B2 to IC50 for inhibition of human CYP11B1; type: ADME
[2] = biological target: T1, Cytochrome P450 11B1, mitochondrial (Homo sapiens, UniProt P15538); assay: Inhibition of human CYP11B1 expressed in Chinese hamster V79 MZh cells using [14C]-deoxycorticosteron as substrate measured after 6 hrs by phosphoimager analysis; type: ADME, cell-based
T1 sequence (P15538 whole entry): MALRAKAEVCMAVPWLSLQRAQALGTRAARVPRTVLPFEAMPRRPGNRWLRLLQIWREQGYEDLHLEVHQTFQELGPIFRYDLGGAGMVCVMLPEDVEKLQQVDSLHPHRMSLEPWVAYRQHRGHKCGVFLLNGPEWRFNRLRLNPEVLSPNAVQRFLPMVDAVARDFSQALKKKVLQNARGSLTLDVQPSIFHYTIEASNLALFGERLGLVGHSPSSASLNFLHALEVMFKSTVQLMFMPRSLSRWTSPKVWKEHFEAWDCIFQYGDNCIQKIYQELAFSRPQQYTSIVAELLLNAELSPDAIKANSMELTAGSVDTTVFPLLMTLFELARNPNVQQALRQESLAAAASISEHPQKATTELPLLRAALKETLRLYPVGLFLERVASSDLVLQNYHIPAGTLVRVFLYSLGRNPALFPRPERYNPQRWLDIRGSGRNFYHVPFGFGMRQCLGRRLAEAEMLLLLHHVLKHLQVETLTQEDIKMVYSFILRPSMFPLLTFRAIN

[3] = biological target: T2, Cytochrome P450 11B2, mitochondrial (Homo sapiens, UniProt P19099); assay: Inhibition of human CYP11B2 expressed in Chinese hamster V79 MZh cells using [14C]-deoxycorticosteron as substrate measured after 6 hrs by phosphoimager analysis; type: ADME, cell-based
T2 sequence (P19099 whole entry): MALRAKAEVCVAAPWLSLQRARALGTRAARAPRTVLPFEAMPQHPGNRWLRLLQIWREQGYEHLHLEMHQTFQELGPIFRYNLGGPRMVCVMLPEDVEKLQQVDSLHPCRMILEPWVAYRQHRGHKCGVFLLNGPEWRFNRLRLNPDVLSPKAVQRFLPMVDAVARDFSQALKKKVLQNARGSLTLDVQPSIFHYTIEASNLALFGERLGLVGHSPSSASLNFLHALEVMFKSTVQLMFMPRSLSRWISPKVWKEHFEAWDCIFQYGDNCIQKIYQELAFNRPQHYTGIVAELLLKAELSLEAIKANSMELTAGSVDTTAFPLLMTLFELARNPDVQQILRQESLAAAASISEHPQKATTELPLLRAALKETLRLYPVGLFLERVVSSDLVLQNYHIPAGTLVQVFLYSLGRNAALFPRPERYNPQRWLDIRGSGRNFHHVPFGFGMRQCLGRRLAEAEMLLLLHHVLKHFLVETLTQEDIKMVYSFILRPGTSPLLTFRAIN

| SMILES | Ratio IC50 [1] | IC50 [2] | IC50 [3] |
| --- | --- | --- | --- |
| O=C(Nc1ccccc1F)[C@]12ON=C(c3cccnc3)[C@H]1[C@@H]1CC[C@H]2C1 | 43 | 135 nM | 5750 nM |
| O=C(Nc1ccc2[nH]ncc2c1)[C@]12ON=C(c3cncc(Br)c3)[C@H]1[C@@H]1CC[C@H]2C1 | 30 | 31 nM | 918 nM |
| O=C(Nc1ccc(F)cc1)[C@]12ON=C(c3cccnc3)[C@H]1[C@@H]1CC[C@H]2C1 | 53 | 57 nM | 2990 nM |
| CN(C(=O)[C@]12ON=C(c3cccnc3)[C@H]1[C@@H]1CC[C@H]2C1)c1ccccc1 | 23 | 183 nM | 4250 nM |
| O=C(Nc1cnc2[nH]ccc2c1)[C@]12ON=C(c3cccnc3)[C@H]1[C@@H]1CC[C@H]2C1 | 97 | 17 nM | 1650 nM |
| O=C(Nc1cccc(Cl)c1Cl)[C@]12ON=C(c3cccnc3)[C@H]1[C@@H]1CC[C@H]2C1 | 33 | 157 nM | 5120 nM |
| Cc1cccc(NC(=O)[C@]23ON=C(c4cccnc4)[C@H]2[C@@H]2CC[C@H]3C2)c1 | 63 | 153 nM | 9640 nM |
| N#Cc1cccc(NC(=O)[C@]23ON=C(c4cccnc4)[C@H]2[C@@H]2CC[C@H]3C2)c1 | 62 | 35 nM | 2180 nM |
| O=C(Nc1ccc2[nH]ncc2c1)[C@]12ON=C(c3cncc(-c4cccc(F)c4)c3)[C@H]1[C@@H]1CC[C@H]2C1 | 52 | 8 nM | 412 nM |
| O=C(Nc1cccc(F)c1)[C@]12ON=C(c3cccnc3)[C@H]1[C@@H]1CC[C@H]2C1 | 58 | 49 nM | 2840 nM |
| O=C(Nc1ccc2[nH]ncc2c1)[C@]12ON=C(c3cncc(-c4ccc(F)cc4)c3)[C@H]1[C@@H]1CC[C@H]2C1 | 19 | 6 nM | 113 nM |
| O=C(Nc1nc2ccccc2[nH]1)[C@]12ON=C(c3cccnc3)[C@H]1[C@@H]1CC[C@H]2C1 | 28 | 106 nM | 2940 nM |
| O=C(Nc1cccc(F)n1)[C@]12ON=C(c3cccnc3)[C@H]1[C@@H]1CC[C@H]2C1 | 47 | 86 nM | 4010 nM |
| COc1cccc(-c2cncc(C3=NO[C@]4(C(=O)Nc5ccc6[nH]ncc6c5)[C@H]5CC[C@H](C5)[C@H]34)c2)c1 | 32 | 15 nM | 477 nM |
| N#Cc1ccc(NC(=O)[C@]23ON=C(c4cccnc4)[C@H]2[C@@H]2CC[C@H]3C2)cc1 | 83 | 46 nM | 3800 nM |
| Cc1ccncc1NC(=O)[C@]12ON=C(c3cccnc3)[C@H]1[C@@H]1CC[C@H]2C1 | 39 | 115 nM | 4450 nM |
| Nc1ccccc1NC(=O)[C@]12ON=C(c3cccnc3)[C@H]1[C@@H]1CC[C@H]2C1 | 31 | 138 nM | 4310 nM |
| Cc1ccc(NC(=O)[C@]23ON=C(c4cccnc4)[C@H]2[C@@H]2CC[C@H]3C2)cc1 | 49 | 128 nM | 6220 nM |

| SMILES | Ratio IC50 [1] | IC50 [2] | IC50 [3] |
| --- | --- | --- | --- |
| O=C(Nc1ccc2[nH]ncc2c1)[C@]12ON=C(c3cncc(-c4ccsc4)c3)[C@H]1[C@@H]1CC[C@H]2C1 | 39 | 37 nM | 1430 nM |
| Cc1ccccc1NC(=O)[C@]12ON=C(c3cccnc3)[C@H]1[C@@H]1CC[C@H]2C1 | 52 | 189 nM | 9770 nM |
| O=C(Nc1ccccc1)[C@]12ON=C(c3cccnc3)[C@H]1[C@@H]1CC[C@H]2C1 | 36 | 167 nM | 5940 nM |
| O=C(Nc1ccc2[nH]ncc2c1)[C@]12ON=C(c3cncc(-c4ccoc4)c3)[C@H]1[C@@H]1CC[C@H]2C1 | 17 | 46 nM | 796 nM |
| O=C(Nc1ccc(Cl)cc1)[C@]12ON=C(c3cccnc3)[C@H]1[C@@H]1CC[C@H]2C1 | 81 | 83 nM | 6720 nM |
| COc1ccc(NC(=O)[C@]23ON=C(c4cccnc4)[C@H]2[C@@H]2CC[C@H]3C2)cc1 | 51 | 79 nM | 4020 nM |
| N#Cc1ccc(-c2cncc(C3=NO[C@]4(C(=O)Nc5ccc6[nH]ncc6c5)[C@H]5CC[C@H](C5)[C@H]34)c2)cc1 | 28 | 2 nM | 57 nM |
| O=C(Nc1ccc2[nH]ncc2c1)[C@]12ON=C(c3cncc(-c4cccc(C(F)(F)F)c4)c3)[C@H]1[C@@H]1CC[C@H]2C1 | 23 | 17 nM | 398 nM |
| O=C(Nc1ccc([N+](=O)[O-])cc1)[C@]12ON=C(c3cccnc3)[C@H]1[C@@H]1CC[C@H]2C1 | 58 | 96 nM | 5590 nM |
| O=C(Nc1cccc(Cl)c1)[C@]12ON=C(c3cccnc3)[C@H]1[C@@H]1CC[C@H]2C1 | 69 | 97 nM | 6670 nM |
| O=C(Nc1ncccn1)[C@]12ON=C(c3cccnc3)[C@H]1[C@@H]1CC[C@H]2C1 | 43 | 179 nM | 7710 nM |
| O=C(Nc1ccc2cc[nH]c2c1)[C@]12ON=C(c3cccnc3)[C@H]1[C@@H]1CC[C@H]2C1 | 82 | 25 nM | 2070 nM |
| O=C(Nc1ccc2[nH]ccc2c1)[C@]12ON=C(c3cccnc3)[C@H]1[C@@H]1CC[C@H]2C1 | 103 | 22 nM | 2280 nM |
| COc1cccc(NC(=O)[C@]23ON=C(c4cccnc4)[C@H]2[C@@H]2CC[C@H]3C2)c1 | 75 | 32 nM | 2390 nM |
| COc1ccccc1NC(=O)[C@]12ON=C(c3cccnc3)[C@H]1[C@@H]1CC[C@H]2C1 | 53 | 113 nM | 5950 nM |
| N#Cc1cccc(-c2cncc(C3=NO[C@]4(C(=O)Nc5ccc6[nH]ncc6c5)[C@H]5CC[C@H](C5)[C@H]34)c2)c1 | 27 | 12 nM | 329 nM |
| O=C(Nc1cccc([N+](=O)[O-])c1)[C@]12ON=C(c3cccnc3)C1[C@@H]1CCC2C1 (single isomer, unassigned) | 41 | 65 nM | 2600 nM |
